{"source": "patent US20250230193A1", "about": "“CYCLIC COMPOUND HAVING SELECTIVE KRAS INHIBITORY EFFECT ON HRAS AND NRAS” (CHUGAI SEIYAKU KABUSHIKI KAISHA, priority 2022, published 2025)", "key": {"[1]": {"target": "GDP-bound NRAS wild-type protein (Homo sapiens, UniProt P01111)", "sequence (P01111 whole entry)": "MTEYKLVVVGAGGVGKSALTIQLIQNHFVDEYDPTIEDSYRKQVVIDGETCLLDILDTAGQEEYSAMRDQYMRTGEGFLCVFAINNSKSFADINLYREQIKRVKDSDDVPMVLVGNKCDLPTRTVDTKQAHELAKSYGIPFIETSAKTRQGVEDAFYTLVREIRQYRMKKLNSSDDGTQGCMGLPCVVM", "assay": "Binding to NRAS by surface plasmon resonance (SPR), Single Cycle Kinetics", "conditions": "for NRAS/KRAS (ratio of KD value with respect to NRAS to KD value with respect to KRAS): GDP-bound NRAS wild-type vs GDP-bound KRAS wild-type"}, "[2]": {"target": "GDP-bound HRAS wild-type protein (Homo sapiens, UniProt P01112)", "sequence (P01112 whole entry)": "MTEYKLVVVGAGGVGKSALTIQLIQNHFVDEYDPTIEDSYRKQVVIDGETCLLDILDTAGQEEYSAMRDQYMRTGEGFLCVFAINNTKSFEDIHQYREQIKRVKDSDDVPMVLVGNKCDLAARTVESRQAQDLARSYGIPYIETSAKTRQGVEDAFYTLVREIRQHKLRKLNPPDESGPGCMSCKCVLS", "assay": "Binding to HRAS by surface plasmon resonance (SPR), Single Cycle Kinetics", "conditions": "for HRAS/KRAS (ratio of KD value with respect to HRAS to KD value with respect to KRAS): GDP-bound HRAS wild-type vs GDP-bound KRAS wild-type"}, "[3]": {"conditions": "SPR, GDP-bound wild-type proteins"}}, "note": "Where a SMILES comes first, the peptide text is derived from it. Bridges are numbered along the chain shown (N, C = ends). [ ]: non-standard residue; d: D form. The star is where a group is joined. hPhe(3,5-F2-4-CF3) = N[C@@H](CCc1cc(F)c(C(F)(F)F)c(F)c1)C(=O)O; NPrPhe(4-CF3) = CCCN[C@@H](Cc1ccc(C(F)(F)F)cc1)C(=O)O; NMeGly(cPent) = CN[C@H](C(=O)O)C1CCCC1; NMeD = CN[C@@H](CC(=O)O)C(=O)O; Ac4c(3-oxa) = NC1(C(=O)O)COC1; NMeL = CN[C@@H](CC(C)C)C(=O)O; Morpholide = C1CN(*)CCO1; Aze = O=C(O)[C@@H]1CCN1; Sar = CNCC(=O)O"}
{"compound": "CCCN1C(=O)CN(C)C(=O)[C@@H]2CCN2C(=O)[C@H]([C@@H](C)CC)NC(=O)[C@H](CC(C)C)N(C)C(=O)C[C@@H](C(=O)N2CCOCC2)N(C)C(=O)[C@H](C2CCCC2)N(C)C(=O)C2(COC2)NC(=O)[C@@H]2CCCN2C(=O)[C@H](CCc2cc(F)c(C(F)(F)F)c(F)c2)NC(=O)CN(C)C(=O)[C@@H]1Cc1ccc(C(F)(F)F)cc1", "note": "[PP0782] ([NMeL]I[Aze][Sar][NPrPhe(4-CF3)][Sar][hPhe(3,5-F2-4-CF3)]P[Ac4c(3-oxa)][NMeGly(cPent)][NMeD]-Morpholide; lactam N-11)", "values": [{"measurement": "NRAS/KRAS (ratio of KD value with respect to GDP-bound NRAS wild-type protein to KD value with respect to KRAS)", "setting": "[1]; SPR", "value": "B (a compound having 3 or more and less than 10 is denoted as B)"}, {"measurement": "HRAS/KRAS (ratio of KD value with respect to GDP-bound HRAS wild-type protein to KD value with respect to KRAS)", "setting": "[2]; SPR", "value": "B (a compound having 3 or more and less than 10 is denoted as B)"}]}
{"compound": "CCO[C@@H]1C[C@H]2C(=O)NC3(CCC3)C(=O)N(C)[C@@H](C3CCCC3)C(=O)N(CC)[C@H](C(=O)N(C)C)CC(=O)N(C)[C@@H](CC)C(=O)N[C@@H]([C@@H](C)CC)C(=O)N(C)CC(=O)N(C)[C@H]3C/C=C\\CCN(C3=O)[C@@H](Cc3ccc(C(F)(F)F)cc3)C(=O)N(C)CC(=O)N[C@@H](CCc3cc(F)c(C(F)(F)F)c(F)c3)C(=O)N2C1", "note": "[PP0980]", "values": [{"measurement": "NRAS/KRAS (ratio of KD value with respect to NRAS to KD value with respect to KRAS)", "setting": "[1]; SPR", "value": "A (a compound having 10 or more and less than 20 is denoted as A)"}, {"measurement": "HRAS/KRAS (ratio of KD value with respect to HRAS to KD value with respect to KRAS)", "setting": "[2]; SPR", "value": "B (a compound having 3 or more and less than 10 is denoted as B)"}]}
{"compound": "CCC[C@H]1C(=O)N[C@@H]([C@@H](C)CC)C(=O)N(C2CC2)CC(=O)N(C)[C@H]2C/C=C\\CCN(C2=O)[C@@H](Cc2ccc(C(F)(F)F)cc2)C(=O)N(C)CC(=O)N[C@@H](CCc2ccc(Cl)c(Cl)c2)C(=O)N2C[C@H](OCC)C[C@H]2C(=O)NC2(CC(C)(C)C2)C(=O)N(C)[C@@H](CC2CCC2)C(=O)N(C)[C@H](C(=O)N(C)C)CC(=O)N1C", "note": "[PP2819]", "values": [{"measurement": "NRAS/KRAS (ratio of KD value with respect to GDP-bound NRAS wild-type protein to KD value with respect to KRAS)", "setting": "[1]; class symbols", "value": "A (a compound having 10 or more and less than 20 is denoted as A)"}, {"measurement": "HRAS/KRAS (ratio of KD value with respect to GDP-bound HRAS wild-type protein to KD value with respect to KRAS)", "setting": "[2]; class symbols", "value": "A (a compound having 10 or more and less than 20 is denoted as A)"}]}
{"compound": "CCC[C@H]1C(=O)N[C@@H](C2CCOCC2)C(=O)N(C)CC(=O)N(C)[C@H]2C/C=C\\CCN(C2=O)[C@@H](Cc2ccc(C)cc2)C(=O)N(C)CC(=O)N[C@@H](CCc2ccc(C(F)(F)F)c(Cl)c2)C(=O)N2C[C@H](OCC)C[C@H]2C(=O)NC2(CC(C)(C)C2)C(=O)N(C)[C@@H](CC(C)(C)C)C(=O)N(C)[C@H](C(=O)N(C)C)CC(=O)N1C", "note": "[PP3026]", "values": [{"measurement": "NRAS/KRAS (ratio of KD value with respect to GDP-bound NRAS wild-type protein to KD value with respect to KRAS)", "setting": "[1]; [3]", "value": "A (a compound having 10 or more and less than 20 is denoted as A)"}, {"measurement": "HRAS/KRAS (ratio of KD value with respect to GDP-bound HRAS wild-type protein to KD value with respect to KRAS)", "setting": "[2]; [3]", "value": "A (a compound having 10 or more and less than 20 is denoted as A)"}]}
{"compound": "CCO[C@@H]1C[C@H]2C(=O)NC3(CC(C)(C)C3)C(=O)N(C)[C@@H](C3CCCC3)C(=O)N(C)[C@H](C(=O)N(C)C)CC(=O)N(C)[C@H]3CCCCCCc4ccc(cc4)C[C@@H](C(=O)N(C)CC(=O)N[C@@H](CCc4ccc(C(F)(F)F)c(OC)c4)C(=O)N2C1)N1CC/C=C\\C[C@@H](C1=O)N(C)C(=O)CN(C)C(=O)[C@H]([C@@H](C)CC)NC3=O", "note": "[PP3066]", "values": [{"measurement": "NRAS/KRAS (ratio of KD value with respect to GDP-bound NRAS wild-type protein to KD value with respect to KRAS)", "setting": "[1]; [3]", "value": "A (a compound having 10 or more and less than 20 is denoted as A)"}, {"measurement": "HRAS/KRAS (ratio of KD value with respect to GDP-bound HRAS wild-type protein to KD value with respect to KRAS)", "setting": "[2]; [3]", "value": "B (a compound having 3 or more and less than 10 is denoted as B)"}]}
{"compound": "CCC[C@H]1C(=O)N[C@@H]([C@@H](C)CC)C(=O)N(C)CC(=O)N(C)[C@H]2CCCCN(C2=O)[C@@H](Cc2ccc(C(F)(F)F)cc2)C(=O)N(C)CC(=O)N[C@@H](CCc2cc(F)c(C(F)(F)F)c(F)c2)C(=O)N2C[C@H](OCC)C[C@H]2C(=O)NC2(CCC2)C(=O)N(C)[C@@H](C2CCCC2)C(=O)N(C)[C@H](C(=O)N2CCOCC2)CC(=O)N1C", "note": "[PP0709]", "values": [{"measurement": "NRAS/KRAS (ratio of KD value with respect to GDP-bound NRAS wild-type protein to KD value with respect to KRAS)", "setting": "[1]; SPR", "value": "C (A compound having a KD ratio of 0.1 or more and less than 3 is denoted as C)"}, {"measurement": "HRAS/KRAS (ratio of KD value with respect to GDP-bound HRAS wild-type protein to KD value with respect to KRAS)", "setting": "[2]; SPR", "value": "B (a compound having 3 or more and less than 10 is denoted as B)"}]}
{"compound": "CC[C@H](C)[C@@H]1NC(=O)[C@H](Cc2cccc(F)c2)N(C)C(=O)C[C@@H](C(=O)N2CCOCC2)N(C)C(=O)[C@H](C2CCCC2)N(C)C(=O)C2(CCCC2)NC(=O)[C@@H]2CCCN2C(=O)[C@H](CCc2ccc(C(F)(F)F)c(Cl)c2)NC(=O)CN(C)C(=O)[C@H](Cc2ccc(F)cc2)N2CCCCC[C@@H](C2=O)N(C)C(=O)CN(C)C1=O", "note": "[PP0962]", "values": [{"measurement": "NRAS/KRAS (ratio of KD value with respect to NRAS to KD value with respect to KRAS)", "setting": "[1]; SPR", "value": "B (a compound having 3 or more and less than 10 is denoted as B)"}, {"measurement": "HRAS/KRAS (ratio of KD value with respect to HRAS to KD value with respect to KRAS)", "setting": "[2]; SPR", "value": "B (a compound having 3 or more and less than 10 is denoted as B)"}]}
